The molecules below were run on platelets (PLT) in whole blood (assay: Whole blood stability: PLT concentration on Sysmex XN-9000 hematology analyzer). Details: FIG. 8; formulated with PVP (Mw 10′000)/Tris matrix, 1 μM in whole blood, with Hep brick or LiHep tube, analyzed within 6 hours, three donors.
Type: cell-based, healthy volunteers
Description: For storage stability and whole blood stabilization testing, the tubes were sprayed with 10 μL each of the mixture (D) using an ExactaCoat from Sono-Tek for ultrasonic spraying. And tubes were evacuated after spraying in order to allow filling of 3 mL whole blood during blood drawing via venipuncture.
Tubes with sprayed anti-platelet agents Iloprost, Beraprost sodium and Treprostinil each formulated with a PVP (Mw 10′000)/Tris matrix were prepared by ultrasonic spraying as described above. Spraying was done into either 1) tubes with no additive and after spraying, a heparinized filter paper brick (Hep brick) was added to the tube; or 2) spraying was conducted into commercial Lithium Heparin tubes (LiHep). The formulations were prepared to achieve a final anti-platelet agent concentration of 1 μM in whole blood. After preparation, tubes were evacuated and lids closed in order to allow drawing of correct whole blood volume during venipuncture. Blood from three different healthy volunteers were drawn into prepared blood collection tubes and reference standard EDTA and Lithium Heparin (LiHep) tubes. Whole blood samples were analyzed with a Sysmex XN-9000 hematology analyzer within 6 hours after blood sample drawing.
The Y-axis is the normalized PLT concentration relative to the EDTA sample.

**Q.** For CC#CCC(C)[C@H](O)/C=C/[C@@H]1[C@H]2c3cccc(CCCC(=O)O)c3O[C@H]2C[C@H]1O (mixture of isomers) [Beraprost, Beraprost sodium], which “anti-platelet activity (normalized PLT concentration relative to the EDTA sample)” value is on record?
**A.** Its value is “as high as that of EDTA”.

**Q.** CC#CCC(C)[C@H](O)/C=C/[C@@H]1[C@H]2C/C(=C/CCCC(=O)O)C[C@H]2C[C@H]1O (stereo partly drawn) [Iloprost, iloprost] was tested. Which “anti-platelet activity (normalized PLT concentration relative to the EDTA sample)” value did it give?
**A.** Its value is “as high as that of EDTA”.

**Q.** How did the “anti-platelet activity (normalized PLT concentration relative to the EDTA sample)” value turn out when CCCCC[C@H](O)CC[C@@H]1[C@H]2Cc3cccc(OCC(=O)O)c3C[C@H]2C[C@H]1O [Treprostinil] was run?
**A.** Its value is “as high as that of EDTA”.
